The source of these data is patent publication US6362233B1, “Methoxy capped alkoxylated glycerin compounds” (Phoenix Research Corporation, priority 2001, dated 2002).

This data set is described as follows: Hydrolysis stability test: 10% test material in solution adjusted to pH 5 with lactic acid, placed at 50 C. for 5 days. Format: physicochemical. As to conditions: pH adjusted to 5 with lactic acid. The text has this: The compounds of the present invention are stable to hydrolysis and provide emollient properties to skin. Typical of the stability of the compounds of the present invention compared to acetate salts is as follows:
pH adjusted to 5 with lactic acid.
10% test material added to get solution.
Placed at 50 C. for 5 days.

As to Glycereth-7-acetate, the “Result (stability to hydrolysis)” value is reported as “Acetic smell, hydrolyzed”. Turning to Glycereth-7-Methoxy capped, the “Result (stability to hydrolysis)” value is listed as “Stable clear liquid”.
